In brackets after ≈: the same amount, converted by molar mass.

Holding throughout (type): functional
Experiment [1] deals with Pseudomonas aeruginosa. The experiment is described as follows: Antimicrobial susceptibility of carbapenem-resistant Pseudomonas aeruginosa PA2404 isolate expressing carbapenemase KPC2.
In experiment [2] the test system is Pseudomonas aeruginosa. In words: Antimicrobial susceptibility of carbapenem-resistant Pseudomonas aeruginosa PA4012 isolate expressing carbapenemase KPC2.
Experiment [3] relates to Pseudomonas aeruginosa. In words: Antimicrobial susceptibility of carbapenem-resistant Pseudomonas aeruginosa PA4036 isolate expressing carbapenemase KPC2.
In the next experiment the test system is Citrobacter freundii. In words: Antimicrobial susceptibility of Citrobacter freundii CF6010 isolate expressing carbapenemase KPC2.

For the molecule `CC(O)[C@H]1C(=O)N2C(C(=O)O)=C(SCCNC=N)C[C@H]12` (single isomer, unassigned) [IMIPENEM ANHYDROUS], the MIC against Pseudomonas aeruginosa [1] was 256 µg/mL (≈ 855 µM); in the experiment with Pseudomonas aeruginosa [2], above 256 µg/mL; with Pseudomonas aeruginosa [3] it was above 256 µg/mL; against Citrobacter freundii, 8 µg/mL (≈ 26.7 µM).
Consider `CO/N=C(\C(=O)N[C@@H]1C(=O)N2C(C(=O)O)=C(COC(C)=O)CS[C@H]12)c1csc(N)n1` (stereo in doubt) [CEFOTAXIME], for which the minimum inhibitory concentration (MIC) in the experiment with Pseudomonas aeruginosa [1] was above 256 µg/mL; against Pseudomonas aeruginosa [2] it was above 256 µg/mL; in the experiment on Pseudomonas aeruginosa [3], above 256 µg/mL; against Citrobacter freundii, 32 µg/mL (≈ 70.3 µM).
For `NCC[C@H](O)C(=O)N[C@@H]1C[C@H](N)[C@@H](O[C@H]2O[C@H](CN)[C@@H](O)[C@H](O)[C@H]2O)[C@H](O)[C@H]1O[C@H]1O[C@H](CO)[C@@H](O)[C@H](N)[C@H]1O` [AMIKACIN], the MIC amounted to 16 µg/mL (≈ 27.3 µM) with Pseudomonas aeruginosa [1], 16 µg/mL (≈ 27.3 µM) with Pseudomonas aeruginosa [2], 16 µg/mL (≈ 27.3 µM) in the experiment with Pseudomonas aeruginosa [3] and 2 µg/mL (≈ 3.42 µM) in the experiment with Citrobacter freundii.
On to `CC1(C)S[C@@H]2[C@H](NC(=O)[C@H](N)c3ccccc3)C(=O)N2[C@H]1C(=O)O` [AMPICILLIN], for which the minimal inhibitory concentration (MIC) against Pseudomonas aeruginosa [1], in the experiment on Pseudomonas aeruginosa [2], against Pseudomonas aeruginosa [3] and against Citrobacter freundii was above 256 µg/mL throughout.
Regarding `C[C@H]1[C@H](NC(=O)/C(=N\OC(C)(C)C(=O)O)c2csc(N)n2)C(=O)N1S(=O)(=O)O` [AZTREONAM], the MIC in the experiment with Pseudomonas aeruginosa [1] is above 256 µg/mL; in the experiment with Pseudomonas aeruginosa [2] it was above 256 µg/mL; in the experiment with Pseudomonas aeruginosa [3], above 256 µg/mL; against Citrobacter freundii, 128 µg/mL (≈ 294 µM).
As for `CO/N=C(\C(=O)N[C@@H]1C(=O)N2C(C(=O)[O-])=C(C[N+]3(C)CCCC3)CS[C@H]12)c1csc(N)n1` [CEFEPIME], the MIC in the experiment with Pseudomonas aeruginosa [1] was above 256 µg/mL; against Pseudomonas aeruginosa [2], above 256 µg/mL; in the experiment with Pseudomonas aeruginosa [3], above 256 µg/mL; in the experiment on Citrobacter freundii, 8 µg/mL (≈ 16.6 µM).
Take `CC(C)(O/N=C(\C(=O)N[C@@H]1C(=O)N2C(C(=O)[O-])=C(C[n+]3ccccc3)CS[C@H]12)c1csc(N)n1)C(=O)O` [CEFTAZIDIME]: the minimum inhibitory concentration (MIC) against Pseudomonas aeruginosa [1] stood at 256 µg/mL (≈ 468 µM); against Pseudomonas aeruginosa [2], 256 µg/mL (≈ 468 µM); against Pseudomonas aeruginosa [3], 256 µg/mL (≈ 468 µM); against Citrobacter freundii, 32 µg/mL (≈ 58.5 µM).
On to `CO/N=C(\C(=O)N[C@@H]1C(=O)N2C(C(=O)O)=C(CSc3nc(=O)c(O)nn3C)CS[C@H]12)c1csc(N)n1` [CEFTRIAXONE], for which the minimum inhibitory concentration (MIC) in the experiment on Pseudomonas aeruginosa [1] is above 256 µg/mL; in the experiment on Pseudomonas aeruginosa [2], above 256 µg/mL; in the experiment on Pseudomonas aeruginosa [3] it was above 256 µg/mL; against Citrobacter freundii, 256 µg/mL (≈ 462 µM).
Turning to `C[C@@H](O)[C@H]1C(=O)N2C(C(=O)O)=C(S[C@@H]3CN[C@H](C(=O)Nc4cccc(C(=O)O)c4)C3)[C@H](C)[C@H]12` [ERTAPENEM], the MIC was above 256 µg/mL in the experiment with Pseudomonas aeruginosa [1], 256 µg/mL (≈ 538 µM) in the experiment on Pseudomonas aeruginosa [2], above 256 µg/mL in the experiment with Pseudomonas aeruginosa [3] and 16 µg/mL (≈ 33.6 µM) against Citrobacter freundii.
With `C[C@@H](O)[C@H]1C(=O)N2C(C(=O)O)=C(S[C@@H]3CN[C@H](C(=O)N(C)C)C3)[C@H](C)[C@H]12` [MEROPENEM], the minimal inhibitory concentration (MIC) is above 256 µg/mL against Pseudomonas aeruginosa [1], above 256 µg/mL with Pseudomonas aeruginosa [2], above 256 µg/mL in the experiment on Pseudomonas aeruginosa [3] and 8 µg/mL (≈ 20.9 µM) with Citrobacter freundii.
On to `CCN1CCN(C(=O)N[C@@H](C(=O)N[C@@H]2C(=O)N3[C@@H]2SC(C)(C)[C@@H]3C(=O)O)c2ccccc2)C(=O)C1=O` [PIPERACILLIN], for which the MIC in the experiment with Pseudomonas aeruginosa [1], against Pseudomonas aeruginosa [2], in the experiment on Pseudomonas aeruginosa [3] and with Citrobacter freundii was above 256 µg/mL throughout.
As for `CN(C)c1cc(NC(=O)CNC(C)(C)C)c(O)c2c1C[C@H]1C[C@H]3[C@H](N(C)C)C(O)=C(C(N)=O)C(=O)[C@@]3(O)C(O)=C1C2=O` [TIGECYCLINE], the MIC against Pseudomonas aeruginosa [1] was 16 µg/mL (≈ 27.3 µM); against Pseudomonas aeruginosa [2], 16 µg/mL (≈ 27.3 µM); against Pseudomonas aeruginosa [3] it was 16 µg/mL (≈ 27.3 µM); in the experiment with Citrobacter freundii, 0.5 µg/mL (≈ 0.854 µM).
Consider `NC[C@H]1O[C@H](O[C@H]2[C@H](O)[C@@H](O[C@H]3O[C@H](CO)[C@@H](O)[C@H](N)[C@H]3O)[C@H](N)C[C@@H]2N)[C@H](N)C[C@@H]1O` [TOBRAMYCIN], for which the MIC was above 128 µg/mL against Pseudomonas aeruginosa [1], above 128 µg/mL in the experiment with Pseudomonas aeruginosa [2], above 128 µg/mL with Pseudomonas aeruginosa [3] and 64 µg/mL (≈ 137 µM) against Citrobacter freundii.
With COLISTIN, the minimum inhibitory concentration (MIC) turned out to be 1 µg/mL with Pseudomonas aeruginosa [1], 2 µg/mL in the experiment on Pseudomonas aeruginosa [2], 1 µg/mL in the experiment on Pseudomonas aeruginosa [3] and 0.5 µg/mL in the experiment with Citrobacter freundii.
On to GENTAMICIN, for which the MIC against Pseudomonas aeruginosa [1], in the experiment on Pseudomonas aeruginosa [2], against Pseudomonas aeruginosa [3] and against Citrobacter freundii was above 128 µg/mL throughout.

Source of the values: ChEMBL document CHEMBL1147103, “First identification of Pseudomonas aeruginosa isolates producing a KPC-type carbapenem-hydrolyzing beta-lactamase” (2007).
